From patent publication US12668600B2 (Kumquat Biosciences Inc., priority 2023, dated 2026)

Tests used:
Assay type in all cases: biochemical
KRAS G12D = target: T1, KRAS G12D (Homo sapiens, UniProt P01116, G12D); experiment: HTRF KRAS-SOS1 interaction assay, KRAS G12D; conditions: binned ≤2 μM / >2 μM, read-out: Inhibition of KRAS G12D (IC50)
T1 construct: made in house; host or cells: E. coli, e.g. BL21 (DE3)
Summary of the method: (§1)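 Read-out: HTRF ratio 665/620 nm after ≥10 min incubation of compound with GST-KRAS/anti-GST-Eu and His-hSOS1/anti-6His-XL665. Duplicate dose series, 10 μM down to 0.01 μM. Buffer HEPES pH 7.4, NaCl, DTT, BSA, Igepal.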

KRAS WT = target: T2, KRAS WT (Homo sapiens, UniProt P01116); experiment: HTRF KRAS-SOS1 interaction assay, wildtype KRAS; conditions: binned ≤2 μM / >2 μM, read-out: Inhibition of KRAS WT (IC50)
T2 construct: made in house; host or cells: E. coli, e.g. BL21 (DE3)
Summary of the method: as §1

KRAS G12V = target: T3, KRAS G12V (Homo sapiens, UniProt P01116, G12V); experiment: HTRF KRAS-SOS1 interaction assay, KRAS G12V; conditions: binned ≤2 μM / >2 μM, read-out: Inhibition of KRAS G12V (IC50)
T3 construct: made in house; host or cells: E. coli, e.g. BL21 (DE3)
Summary of the method: as §1

KRAS G12S = target: T4, KRAS G12S (Homo sapiens, UniProt P01116, G12S); experiment: HTRF KRAS-SOS1 interaction assay, KRAS G12S; conditions: binned ≤2 μM / >2 μM, read-out: Inhibition of KRAS G12S (IC50)
T4 construct: made in house; host or cells: E. coli, e.g. BL21 (DE3)
Summary of the method: as §1

T4 sequence (P01116 1-188 isoform P01116-2 G12S): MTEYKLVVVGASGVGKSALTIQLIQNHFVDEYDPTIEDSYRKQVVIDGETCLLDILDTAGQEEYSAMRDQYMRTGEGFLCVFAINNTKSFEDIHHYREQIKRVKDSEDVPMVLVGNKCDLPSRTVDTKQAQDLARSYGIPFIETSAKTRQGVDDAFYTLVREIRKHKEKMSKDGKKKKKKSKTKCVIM
T1 sequence (P01116 1-188 isoform P01116-2 G12D): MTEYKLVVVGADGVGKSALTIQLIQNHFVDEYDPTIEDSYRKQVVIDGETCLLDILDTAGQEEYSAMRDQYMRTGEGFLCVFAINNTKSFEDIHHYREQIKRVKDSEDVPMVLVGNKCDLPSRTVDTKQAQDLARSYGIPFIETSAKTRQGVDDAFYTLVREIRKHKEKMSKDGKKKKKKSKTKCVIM
T3 sequence (P01116 1-188 isoform P01116-2 G12V): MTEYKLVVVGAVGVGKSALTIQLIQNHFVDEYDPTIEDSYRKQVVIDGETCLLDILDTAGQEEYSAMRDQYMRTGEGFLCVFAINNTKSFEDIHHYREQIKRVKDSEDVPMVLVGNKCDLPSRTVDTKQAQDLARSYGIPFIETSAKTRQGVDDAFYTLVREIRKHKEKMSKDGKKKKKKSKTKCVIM
T2 sequence (P01116 1-188 isoform P01116-2): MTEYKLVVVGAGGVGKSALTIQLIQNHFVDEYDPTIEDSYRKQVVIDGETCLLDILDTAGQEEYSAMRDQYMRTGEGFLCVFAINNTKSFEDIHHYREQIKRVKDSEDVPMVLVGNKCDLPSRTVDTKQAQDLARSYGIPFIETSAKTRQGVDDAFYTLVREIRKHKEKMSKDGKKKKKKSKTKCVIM

Structure (SMILES)	IC50 (KRAS G12D) [µM]	IC50 (KRAS WT) [µM]	IC50 (KRAS G12V) [µM]	IC50 (KRAS G12S) [µM]
CO[C@H]1CCN(C)[C@@H]1[C@H](C)Oc1nc2c3c(c(C(F)(F)F)c(-c4ccc(F)c5sc(N)c(C#N)c45)c(F)c3n1)OCCN2[C@H](C)c1cc(F)cnc1N [Compound 630, 2-amino-4-(4-((R)-1-(2-amino-5-fluoropyridin-3-yl)ethyl)-10-fluoro-2-((S)-1-((2R,3S)-3-methoxy-1-methylpyrrolidin-2-yl)ethoxy)-8-(trifluoromethyl)-5,6-dihydro-4H-[1,4]oxazepino[5,6,7-de]quinazolin-9-yl)-7-fluorobenzo[b]thiophene-3-carbonitrile]	≤ 2	≤ 2	≤ 2	≤ 2
C[C@H](c1cc(Cl)cnc1N)N1CCOc2c(C(F)(F)F)c(-c3ccc(F)c4sc(N)c(C#N)c34)c(F)c3nc(OCC4(CN5CCC6(CC5)CC6(F)F)CC4)nc1c23 [Compound 679, 2-amino-4-(4-((R)-1-(2-amino-5-chloropyridin-3-yl)ethyl)-2-((1-((1,1-difluoro-6-azaspiro[2.5]octan-6-yl)methyl)cyclopropyl)methoxy)-10-fluoro-8-(trifluoromethyl)-5,6-dihydro-4H-[1,4]oxazepino[5,6,7-de]quinazolin-9-yl)-7-fluorobenzo[b]thiophene-3-carbonitrile]	≤ 2	≤ 2	≤ 2	≤ 2
N#Cc1c(N)sc2c(F)ccc(-c3c(Cl)c4c5c(nc(OC[C@@]67CCCN6C[C@H](F)C7)nc5c3F)N(C(/C=C\F)c3cccnc3N)CCO4)c12 (single isomer, unassigned) [Compound 755]	≤ 2	≤ 2	≤ 2	≤ 2
C=CC(F)(F)[C@H](c1cccnc1N)N1CCOc2c(Cl)c(-c3ccc(F)c4sc(N)c(C#N)c34)c(F)c3nc(OC[C@@]45CCCN4C[C@H](F)C5)nc1c23 [Compound 639, 2-amino-4-(4-((S)-1-(2-aminopyridin-3-yl)-2,2-difluorobut-3-en-1-yl)-8-chloro-10-fluoro-2-(((2R,7aS)-2-fluorotetrahydro-1H-pyrrolizin-7a(5H)-yl)methoxy)-5,6-dihydro-4H-[1,4]oxazepino[5,6,7-de]quinazolin-9-yl)-7-fluorobenzo[b]thiophene-3-carbonitrile]	≤ 2	≤ 2	≤ 2	≤ 2
C[C@H](c1cccnc1N)N1CCOc2nc(-c3ccc(F)c4sc(N)c(C#N)c34)c(F)c3nc(OC[C@@H]4CCCN4C)nc1c23 (single isomer, unassigned) [Compound 651]	≤ 2	≤ 2	≤ 2	≤ 2
CCON=C1CN2CCC[C@@]2(COc2nc3c4c(c(Cl)c(-c5ccc(F)c6sc(N)c(C#N)c56)c(F)c4n2)OCCN3[C@H](C)c2cccnc2N)C1 (single isomer, unassigned) [Compound 700]	≤ 2	≤ 2	≤ 2	≤ 2
N#Cc1c(N)sc2c(F)ccc(-c3c(C(F)(F)F)c4c5c(nc(OC[C@@]67CCCN6C[C@H](F)C7)nc5c3F)N([C@H](CC3CCOC3)c3cccnc3N)CCO4)c12 (single isomer, unassigned) [Compound 692]	≤ 2	≤ 2	≤ 2	≤ 2
N#Cc1c(N)sc2c(F)ccc(-c3c(C(F)(F)F)c4c5c(nc(OC[C@@]67CCCN6CC(=C(F)F)C7)nc5c3F)N([C@H](CCC(F)(F)F)c3cc(F)cnc3N)CCO4)c12 [Compound 640, 2-amino-4-(4-((R)-1-(2-amino-5-fluoropyridin-3-yl)-4,4,4-trifluorobutyl)-2-(((S)-2-(difluoromethylene)tetrahydro-1H-pyrrolizin-7a(5H)-yl)methoxy)-10-fluoro-8-(trifluoromethyl)-5,6-dihydro-4H-[1,4]oxazepino[5,6,7-de]quinazolin-9-yl)-7-fluorobenzo[b]thiophene-3-carbonitrile]	≤ 2	≤ 2	≤ 2	≤ 2
C[C@H](c1ccc(CN)nc1N)N1CCOc2c(Cl)c(-c3ccc(F)c4sc(N)c(C#N)c34)c(F)c3nc(OC[C@@]45CCCN4C[C@H](F)C5)nc1c23 [Compound 813, 2-amino-4-(4-((R)-1-(2-amino-6-(aminomethyl)pyridin-3-yl)ethyl)-8-chloro-10-fluoro-2-(((2R,7aS)-2-fluorotetrahydro-1H-pyrrolizin-7a(5H)-yl)methoxy)-5,6-dihydro-4H-[1,4]oxazepino[5,6,7-de]quinazolin-9-yl)-7-fluorobenzo[b]thiophene-3-carbonitrile]	≤ 2	≤ 2	≤ 2	≤ 2
CC(=O)N1CCC(C[C@H](c2cccnc2N)N2CCOc3c(C(F)(F)F)c(-c4ccc(F)c5sc(N)c(C#N)c45)c(F)c4nc(OC[C@@]56CCCN5C[C@H](F)C6)nc2c34)CC1 [Compound 658, 4-(4-((R)-2-(1-acetylpiperidin-4-yl)-1-(2-aminopyridin-3-yl)ethyl)-10-fluoro-2-(((2R,7aS)-2-fluorotetrahydro-1H-pyrrolizin-7a(5H)-yl)methoxy)-8-(trifluoromethyl)-5,6-dihydro-4H-[1,4]oxazepino[5,6,7-de]quinazolin-9-yl)-2-amino-7-fluorobenzo[b]thiophene-3-carbonitrile]	≤ 2	≤ 2	≤ 2	≤ 2
N#Cc1c(N)sc2c(F)ccc(-c3c(C(F)(F)F)c4c5c(nc(OC[C@@]67CCCN6C[C@H](F)C7)nc5c3F)N([C@H](CC3CCC3)c3cccnc3N)CCO4)c12 (single isomer, unassigned) [Compound 893]	≤ 2	≤ 2	≤ 2	≤ 2
CC(Oc1nc2c3c(c(Cl)c(-c4ccc(F)c5sc(N)c(C#N)c45)c(F)c3n1)OCCN2[C@H](C)c1cccnc1N)[C@@H]1CC(F)(F)CN1C (single isomer, unassigned) [Compound 659]	> 2	> 2	> 2	> 2
N#Cc1c(N)sc2c(F)ccc(-c3c(C(F)(F)F)c4c5c(nc(OC[C@@]67CCCN6C[C@@]6(CC6(F)F)C7)nc5c3F)N([C@@H](c3cccnc3N)C(F)F)CCO4)c12 (single isomer, unassigned) [Compound 843]	≤ 2	≤ 2	≤ 2	≤ 2
C#Cc1c(F)ccc2cc(O)cc(-c3nc4c5c(nc(OC[C@@]67CCCN6C[C@H](F)C7)nc5c3F)N([C@H](C)c3cccnc3N)CCO4)c12 (single isomer, unassigned) [Compound 862]	≤ 2	≤ 2	≤ 2	≤ 2
CCN1CC[C@H](OC)[C@H]1[C@H](C)Oc1nc2c3c(c(C(F)(F)F)c(-c4ccc(F)c5sc(N)c(C#N)c45)c(F)c3n1)OCCN2[C@H](C)c1cccnc1N [Compound 896, 2-amino-4-(4-((R)-1-(2-aminopyridin-3-yl)ethyl)-2-((S)-1-((2R,3S)-1-ethyl-3-methoxypyrrolidin-2-yl)ethoxy)-10-fluoro-8-(trifluoromethyl)-5,6-dihydro-4H-[1,4]oxazepino[5,6,7-de]quinazolin-9-yl)-7-fluorobenzo[b]thiophene-3-carbonitrile]	≤ 2	≤ 2	≤ 2	≤ 2
N#Cc1c(N)sc2c(F)ccc(-c3c(C(F)(F)F)c4c5c(nc(OC[C@@]67CCCN6C[C@H](F)C7)nc5c3F)N([C@H](CCC3CC3)c3cccnc3N)CCO4)c12 (single isomer, unassigned) [Compound 606]	> 2	> 2	> 2	> 2
C[C@H](c1cccnc1N)N1CCOc2c(Cl)c(-c3ccc(F)c4sc(N)c(C#N)c34)c(F)c3nc(OC[C@@]45CCCN4C[C@H](F)C5)nc1c23 [Compound 850, 2-amino-4-(4-(1-(2-aminopyridin-3-yl)ethyl)-8-chloro-10-fluoro-2-(((2R,7aS)-2-fluorotetrahydro-1H-pyrrolizin-7a (5H)-yl)methoxy)-5,6-dihydro-4H-[1,4]oxazepino[5,6,7-de]quinazolin-9-yl)-7-fluorobenzo[b]thiophene-3-carbonitrile]	≤ 2	≤ 2	≤ 2	≤ 2
C[C@H](c1cccnc1N)N1CCOc2c(C(F)(F)F)c(-c3ccc(F)c4sc(N)c(C#N)c34)c(F)c3nc(OC[C@@]45CCCN4C[C@@]4(CC4(F)F)C5)nc1c23 (single isomer, unassigned) [Compound 725]	≤ 2	≤ 2	≤ 2	≤ 2
Cc1c(F)c(N)cc(-c2nc3c4c(nc(OC[C@@]56CCCN5C[C@H](F)C6)nc4c2F)N([C@H](C)c2cccnc2N)CCO3)c1C(F)(F)F (single isomer, unassigned) [Compound 765]	≤ 2	≤ 2	≤ 2	≤ 2
